pIC50, pKi: −log10 of the molar value. Read-outs that look alike come from different tables or passages of the source.
Tests used:
hCA I = molecular target: T1, hCA I (Homo sapiens, UniProt P00915); test: CA inhibition by the esterase assay, hCA I; type: biochemical; settings: for pIC50: human recombinant enzyme, 4-nitrophenylacetate as substrate
T1 construct: purchased
Protocol: (§1) The esterase assay was used for testing the inhibitory activities of target compounds against carbonic anhydrases. […] Next, the stock solution of inhibitor was diluted to the specified concentration by using analysis buffer. […] In addition, the purchased CA was diluted with analysis buffer and added to 96-well plates. Next, different concentrations of inhibitors were also added to 96-well plates. To form the inhibitors and enzymes complex, E-I solutions were preincubated together for 4 h before the test at room temperature. Meanwhile, the nonenzymatic hydrolysis rates were tested by the blank control experiments. The absorbances were determined by using multifunctional enzyme marking instrument.

hCA II = hCA II (Homo sapiens, UniProt P00918); test: CA inhibition by the esterase assay, hCA II; type: biochemical; settings: human recombinant enzyme, 4-nitrophenylacetate as substrate
Protocol: as §1

hCA IX = molecular target: T2, hCA IX (Homo sapiens, UniProt Q16790); test: CA inhibition by the esterase assay, hCA IX; type: biochemical; settings: for pIC50: human recombinant enzyme, 4-nitrophenylacetate as substrate; for pIC50 / Inhibition of hCA IX (in words): esterase assay; for Selectivity Ratio hCA I/hCA IX / Selectivity Ratio hCA II/hCA IX: ratio of IC50 values
T2 construct: purchased
Protocol: as §1

HT-29 cells = test: Cell viability MTT assay, HT-29; type: cell-based; settings: Homo sapiens
Protocol: (§2) In the present study, the potential cytotoxicity of compounds 10a–10p was evaluated in vitro by MTT assay. […] So, half of each cell line were subjected to hypoxic conditions (0.5% O2, 5% CO2 and 94.5% N2) for inducing the expression of CA IX and the other half were incubated under normal conditions (normoxia). Subsequently, all synthesized derivatives were screened at a concentration of 100 μM to test their cytotoxicity in mentioned above cells.
(§3) The two human cancer cell lines were cultivated for 24 h at 37 °C in a 96-well plate. Subsequently, different concentrations of inhibitors were added to 96-well plate and then was incubated for 96 hours. After the MTT solution was added to per well, cancer cells were further incubated for 4 h at 37 °C. Finally, formazan crystals were dissolved by using DMSO. The cancer cells were from American Type Culture Collection.

MDA-MB-231 cells = test: Cell viability MTT assay, MDA-MB-231; type: cell-based; settings: Homo sapiens
Protocol: as §2, §3

HT-29 cancer cells = test: Extracellular pH measurement, HT-29; type: cell-based, human; settings: HT-29, 0.1 and 0.5 mM, 48 h, normoxia and hypoxia
Protocol: (§4) One important feature of CA IX is regulating the pH of tumor cells. The expression of CA IX in solid tumors will make the extracellular pH become more acidic to promote tumor growth and metastasis. Therefore, the effect on extracellular pH of the representative compounds 10a and 10h was tested in hypoxia and normoxic conditions. […] Especially, the extracellular acidification of these two cancer cells could be slightly reversed by this compound under normoxic condition. In addition, the reversal of extracellular acidification is more significant under hypoxia condition. Furthermore, a dose-dependent effect was observed.
(§5) Figure 3 Extracellular pH measurement after 48 h of HT-29 and MDA-MB-231 cancer cells in normoxia and hypoxia upon treatment with compound 10a and 10h (0.1 and 0.5 mM).

MDA-MB-231 cancer cells = test: Extracellular pH measurement, MDA-MB-231; type: cell-based, human; settings: MDA-MB-231, 0.1 and 0.5 mM, 48 h, normoxia and hypoxia
Protocol: as §4, §5

[1] = Metabolic stability in mouse liver microsomes; settings: for CLint scaled at 1 μM / half-life at 1 μM: mouse, liver microsomes
in vitro = settings: mouse, microsomes
MCF-10A cell line = test: Cytotoxicity against normal cell line MCF-10A (MTT assay); type: cell-based; settings: Homo sapiens
hERG channel = molecular target: T3, hERG channel (Homo sapiens, UniProt Q12809); test: Inhibition evaluation on hERG K+ channel (whole-cell recording, HEK 293); type: cell-based; settings: HEK 293 cells stably transfected with hERG
T3 construct: expressed in transfected cells; host or cells: HEK 293
T3 sequence (Q12809 whole entry): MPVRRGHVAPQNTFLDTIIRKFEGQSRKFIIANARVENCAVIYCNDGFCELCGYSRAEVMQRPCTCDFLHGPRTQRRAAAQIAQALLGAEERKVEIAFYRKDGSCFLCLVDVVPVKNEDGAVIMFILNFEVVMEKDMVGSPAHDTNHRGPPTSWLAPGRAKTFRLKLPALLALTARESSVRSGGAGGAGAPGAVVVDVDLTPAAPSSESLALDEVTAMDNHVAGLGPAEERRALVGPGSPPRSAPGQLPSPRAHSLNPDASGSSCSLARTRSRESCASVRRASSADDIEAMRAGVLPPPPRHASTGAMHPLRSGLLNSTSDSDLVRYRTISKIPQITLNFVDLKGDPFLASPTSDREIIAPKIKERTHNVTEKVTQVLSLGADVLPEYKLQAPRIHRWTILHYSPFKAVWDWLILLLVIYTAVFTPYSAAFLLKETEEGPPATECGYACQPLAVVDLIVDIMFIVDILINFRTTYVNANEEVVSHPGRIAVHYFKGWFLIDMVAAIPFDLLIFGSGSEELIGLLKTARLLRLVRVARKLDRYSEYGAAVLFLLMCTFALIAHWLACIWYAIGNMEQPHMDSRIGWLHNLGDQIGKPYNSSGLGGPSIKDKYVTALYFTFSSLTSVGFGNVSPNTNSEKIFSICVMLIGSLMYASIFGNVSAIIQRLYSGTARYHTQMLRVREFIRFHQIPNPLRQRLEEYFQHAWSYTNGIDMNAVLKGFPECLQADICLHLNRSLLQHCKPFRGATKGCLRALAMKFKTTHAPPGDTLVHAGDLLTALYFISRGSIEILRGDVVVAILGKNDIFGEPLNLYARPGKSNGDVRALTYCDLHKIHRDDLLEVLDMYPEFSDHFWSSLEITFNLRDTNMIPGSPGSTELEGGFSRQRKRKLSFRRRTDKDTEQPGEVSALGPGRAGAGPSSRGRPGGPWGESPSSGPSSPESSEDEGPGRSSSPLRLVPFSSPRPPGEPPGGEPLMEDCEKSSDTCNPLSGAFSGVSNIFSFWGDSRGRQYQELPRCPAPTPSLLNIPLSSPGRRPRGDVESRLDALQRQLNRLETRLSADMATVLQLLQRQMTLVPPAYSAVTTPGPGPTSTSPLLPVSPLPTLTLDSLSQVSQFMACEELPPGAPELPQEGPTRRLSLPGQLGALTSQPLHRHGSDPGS
Protocol: HEK 293 cells were stably transfected with human Ether-a-gogo related gene (hERG) channel. The voltage-gated hERG potassium channel current was recorded at room temperature from randomly selected transfected cells using whole-cell recording technique with an EPC10 USB (HEKA) or Multiclamp 700 B amplifier (Molecular Devices) while electrical data was digitalized by Digidata1440 A with acquisition rate of 10 kHz and signals filtered at 2.5 KHz using Patchmaster or pClamp 10, respectively. Dofetilide was included as a positive control to ensure the accuracy and sensitivity of the test system. All experiments were performed in 3 times.

[2] = Acute toxicity assay in mice; settings: mouse, in vivo, oral, mice, expected from preliminary data
Protocol: (§6) Finally, acute toxicity of representative compounds was conducted in mice to preliminarily evaluate the risk of target compounds to mammals. […].
(§7) […]. After the compound was administered, the latency of death was observed and recorded over a span of 14 days. The experimental protocols were evaluated and approved by the ethics committee of the Shenyang Pharmaceutical University.

mice = test: Acute toxicity assay in mice; settings: mouse, in vivo, 14 days
Protocol: as §6, §7

CAI = settings: reported coumarins, Figure 1; cited from earlier work
CAII = settings: reported coumarins, Figure 1; cited from earlier work
CAIX = settings: reported coumarins, Figure 1; cited from earlier work
Plasma stability assay = type: in vitro ADME; settings: male, SD, pH 7.4, rat plasma, 37 °C
Protocol: In fact, most drugs reach their targets to show their pharmacological activity via the circulation system, therefore, the plasma stability of the target compound is a crucial consideration for the evaluation of its druggability. Therefore, the in vitro plasma stability assay of the representative compound was also performed in this study.
Rat plasma was collected from adult male SD rats. The in vitro stability of 10a was determined in rat plasma and in PBS at 37 °C, at the meantime, samples were taken at time points 0, 10, 30, 60, and 120, and tested by HPLC. The rest of the time was incubated in a constant temperature shaker to compare different time points. Compare the peak areas of 10a in PBS or in rat plasma (pH = 7.4, 37 °C) before and after constant temperature incubation at different time points. The compounds in rat plasma were extracted with methanol, centrifuged, and repeated three times, and then detected with a preparative liquid phase at 254 wavelength.

[3] = hypoxia (0.5% O2, 5% CO2 and 94.5% N2), read-out: Cell Viability (%) HT-29 Hypoxia
[4] = normoxia, read-out: Cell Viability (%) HT-29 Normoxia
[5] = hypoxia (0.5% O2, 5% CO2 and 94.5% N2), read-out: Cell Viability (%) MDA-MB-231 Hypoxia
[6] = normoxia, read-out: Cell Viability (%) MDA-MB-231 Normoxia

T1 sequence (P00915 whole entry): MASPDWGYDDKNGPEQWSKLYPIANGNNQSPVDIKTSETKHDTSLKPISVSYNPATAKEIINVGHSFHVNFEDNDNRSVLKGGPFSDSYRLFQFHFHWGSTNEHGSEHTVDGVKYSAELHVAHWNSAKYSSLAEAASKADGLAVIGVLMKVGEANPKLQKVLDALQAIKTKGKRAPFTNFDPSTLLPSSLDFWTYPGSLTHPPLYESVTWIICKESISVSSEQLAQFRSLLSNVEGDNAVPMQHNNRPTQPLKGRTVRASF

| SMILES | pIC50 (hCA I) | pIC50 (hCA II) | pIC50 (hCA IX) | Selectivity Ratio hCA I/hCA IX (hCA IX) | Selectivity Ratio hCA II/hCA IX (hCA IX) | viability at 100 µM (HT-29 cells; [3]) [%] | viability at 100 µM (HT-29 cells; [4]) [%] | viability at 100 µM (MDA-MB-231 cells; [5]) [%] | viability at 100 µM (MDA-MB-231 cells; [6]) [%] | CLint scaled at 1 μM [1] [mL/min/kg] | half-life at 1 μM [1] [h] | pKi (CAI) | pKi (CAII) | pKi (CAIX) | other results |
| --- | --- | --- | --- | --- | --- | --- | --- | --- | --- | --- | --- | --- | --- | --- | --- |
| O=c1ccc2ccc(OCc3cn([C@@H]4O[C@H](CO)[C@@H](O)[C@H]4O)nn3)cc2o1 [Compound 10h, 7-[(1-β-. D-ribofuranosyl-1H-1,2,3-triazol-4-yl)methoxy]-2H-chromen-2-one] | 4.63 | 4.72 | 6.88 | 177 | 144 | 43.5 | 54 | 37.2 | 63.7 | 4.21 | 21.7 | – | – | – | Effect on extracellular acidification (extracellular pH) (HT-29 cancer cells): weaker reversal effect of extracellular acidification; Effect on extracellular acidification (extracellular pH) (MDA-MB-231 cancer cells): weaker reversal effect of extracellular acidification; melting point: 131.2 to 133.6 °C |
| O=C(O)Cc1ccccc1Nc1c(Cl)cccc1Cl [Diclofenac, reference compound] | – | – | – | – | – | – | – | – | – | – | – | – | – | – | half-life at 1 μM (in vitro): 0.667 h; CL ([1]; mouse liver microsomes, 1 μΜ test compound): 137.4 mL/min/kg |
| O=c1ccc2ccc(OCc3cn([C@@H]4O[C@H](CO)[C@@H](O)[C@H](O)[C@@H]4O)nn3)cc2o1 [Compound 10c, 7-[(1-β-. D-mannopyranosyl-1H-1,2,3-triazol-4-yl)methoxy]-2H-chromen-2-one] | 4.76 | 4.62 | 7.82 | 1167 | 1600 | 40.2 | 42.6 | 38.3 | 55.2 | 4.07 | 22.4 | – | – | – | pIC50 (MCF-10A cell line): < 4.00; pIC50 (hERG channel): < 4.30; LD50 at 14 days [2]: > 1500 mg/kg; Survival Quantity/Total Quantity (mice; 500 mg/kg): 5/5; Survival Quantity/Total Quantity (mice; 1000 mg/kg): 5/5; Survival Quantity/Total Quantity (mice; 1500 mg/kg): 5/5 |
| S=c1ccc2ccccc2s1 [Dithiocoumarin 5, dithiocoumarin] | – | – | – | – | – | – | – | – | – | – | – | < 4.00 | < 4.00 | – | – |
| O=c1ccc2ccc(O)cc2o1 [Umbelliferone, 7-hydroxy coumarin] | – | – | – | – | – | – | – | – | – | – | – | < 4.23 | < 4.00 | 6.32 | Inhibition of hCA I (in words) (hCA I): not at all inhibited; Inhibition of hCA IX (in words) (hCA IX): weakly inhibited |
| Cc1cc(=O)oc2cc(O[C@@H]3O[C@H](CO)[C@@H](O)[C@H](O)[C@H]3O)ccc12 [Compound 8] | – | – | – | – | – | – | – | – | – | – | – | 6.00 | < 4.00 | 6.43 | – |
| Cc1cc(=O)oc2cc(O)ccc12 [4-Methylumbelliferone, 4-methyl-7-hydroxy coumarin, reference compound] | < 4.00 | < 4.00 | 6.22 | – | – | – | – | – | – | – | – | < 4.00 | < 4.00 | 6.25 | Inhibition of hCA I (in words) (hCA I): not at all inhibited; Inhibition of hCA IX (in words) (hCA IX): weakly inhibited |
| Cc1cc(=O)oc2cc(O[C@@H]3O[C@H](CO)[C@@H](O)[C@H](O)[C@@H]3O)ccc12 [Compound 9] | – | – | – | – | – | – | – | – | – | – | – | < 4.00 | < 4.00 | 8.04 | – |
| O=c1ccc2ccc(OCc3cn([C@@H]4O[C@H](CO)[C@@H](O)[C@H](O)[C@H]4O)nn3)cc2o1 [Compound 10a, 7-[(1-β-. D-glucopyranosyl-1H-1,2,3-triazol-4-yl)methoxy]-2H-chromen-2-one] | 4.48 | 4.67 | 7.96 | 3018 | 1955 | 32.5 | 40.2 | 32.9 | 51.3 | 4.76 | 19.2 | – | – | – | Effect on extracellular acidification (extracellular pH) (HT-29 cancer cells): important impact on the extracellular acidification; Effect on extracellular acidification (extracellular pH) (MDA-MB-231 cancer cells): important impact on the extracellular acidification; pIC50 (MCF-10A cell line): < 4.00; remaining at 0 h (Plasma stability assay; time point 0 min): 100%; remaining at 10 min (Plasma stability assay; time point 10 min): 115%; remaining at 0.5 h (Plasma stability assay; time point 30 min): 93%; remaining at 1 h (Plasma stability assay; time point 60 min): 86%; remaining at 2 h (Plasma stability assay; time point 120 min): 102%; half-life (Plasma stability assay; read-out: T1/2 plasma stability): > 20.5 h; pIC50 (hERG channel): < 4.30; LD50 at 14 days [2]: > 1500 mg/kg; Survival Quantity/Total Quantity (mice; 500 mg/kg): 5/5; Survival Quantity/Total Quantity (mice; 1000 mg/kg): 5/5; Survival Quantity/Total Quantity (mice; 1500 mg/kg): 5/5 |
| S=c1ccc2ccccc2o1 [2-Thiocoumarin 4, 2-thioxocoumarin] | – | – | – | – | – | – | – | – | – | – | – | < 4.00 | < 4.00 | 5.17 | – |
